Measured values: ChEMBL document CHEMBL1201862, “PubChem BioAssay data set” (2004)
The source made the active and inactive calls.

Key:
[1] = target: Voltage-dependent T-type calcium channel subunit alpha-1H (Homo sapiens, UniProt O95180); format: functional;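 also: channel activity triggered by adding a high calcium stimulation buffer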
[2] = microbe, parasite or virus in culture; format: functional; conditions: Mycobacterium tuberculosis
[3] = growth suppression of PTEN-null colon cells, dose response, cell-based, HCT116 PTEN knockout (AID 1047); format: functional;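 also: HCT116 colon tumor cells with PTEN knocked out; cells exposed to compound for 60 hours before readout; potency for loss of cell viability measured by luminescence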
[4] = growth suppression of beta-catenin-knockout colon cells, dose response, cell-based, HCT116, human colon tumor (AID 1045); format: functional;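 also: HCT116 colon tumor cells with beta catenin knocked out; cells exposed to compound for 60 hours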
[5] = cytotoxicity toward NIH3T3 fibroblasts, dose response, counter-screen, cell-based, ATP luminescence, mouse fibroblasts (AID 2010); format: functional;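 also: cells exposed to compound for about 90 hours before reading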
[6] = inhibitors of intracellular T. cruzi replication, confirmation, NIH3T3 host cells, beta-gal luminescence (AID 2044); format: functional, cell-based;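 also: intracellular parasites grown in NIH/3T3 mouse fibroblasts as host cells; luminescent beta-galactosidase reporter signal from transgenic T. cruzi replicating inside host cells; inhibitors lower the luminescence signal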
[7] = HepG2 cell cytotoxicity, dose response, cytotoxicity control for Shn3 inhibitor project, CellTiter-Glo, cherry-picked (AID 624134); format: functional, cell-based
[8] = control 3'UTR Renilla luciferase suppression, dose response, counter-screen for Shn3 inhibitor project, cell-based, Clone20-Shn3RL, cherry-picked (AID 624133); format: functional
[9] = Shn3 3'UTR reporter inhibitors, dose response, cell-based, Clone20 osteoblasts, firefly luciferase, cherry-picked (AID 624132); format: functional;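 also: firefly luciferase luminescence from reporter carrying the Shn3 3'UTR in osteoblasts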
[10] = target: T1, Polyadenylate-binding protein 1 (Homo sapiens, UniProt P11940); experiment: PABP1 MLLE–PAM2 binding inhibitor potency, dose response, biochemical, fluorescence polarization, FITC-PAM2 peptide (AID 602259); format: functional; conditions: read-out: IC50_Mean
[11] = target: T1, Polyadenylate-binding protein 1; experiment: PABP1 MLLE–PAM2 interaction inhibitors, dose response, miRNA deadenylation inhibitor project, biochemical, fluorescence polarization, Cy5-PAM2 peptide, secondary (AID 602260); format: functional; conditions: read-out: IC50_Mean
Large T antigen = Large T antigen (Simian virus 40, UniProt P03070); format: functional, Betapolyomavirus macacae;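 also: Confirmatory-stage PubChem screen for compounds that inhibit SV40 T antigen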
[12] = target: FAD-linked sulfhydryl oxidase ALR (Homo sapiens, UniProt P55789); experiment: inhibitors of human ALR sulfhydryl oxidase, dose response, biochemical, H2O2 detection, luminescence, cherry-pick (AID 493248)
Protein skinhead-1 = target: T2, Protein skinhead-1 (Caenorhabditis elegans, UniProt P34707); format: functional
T2 sequence (P34707 whole entry): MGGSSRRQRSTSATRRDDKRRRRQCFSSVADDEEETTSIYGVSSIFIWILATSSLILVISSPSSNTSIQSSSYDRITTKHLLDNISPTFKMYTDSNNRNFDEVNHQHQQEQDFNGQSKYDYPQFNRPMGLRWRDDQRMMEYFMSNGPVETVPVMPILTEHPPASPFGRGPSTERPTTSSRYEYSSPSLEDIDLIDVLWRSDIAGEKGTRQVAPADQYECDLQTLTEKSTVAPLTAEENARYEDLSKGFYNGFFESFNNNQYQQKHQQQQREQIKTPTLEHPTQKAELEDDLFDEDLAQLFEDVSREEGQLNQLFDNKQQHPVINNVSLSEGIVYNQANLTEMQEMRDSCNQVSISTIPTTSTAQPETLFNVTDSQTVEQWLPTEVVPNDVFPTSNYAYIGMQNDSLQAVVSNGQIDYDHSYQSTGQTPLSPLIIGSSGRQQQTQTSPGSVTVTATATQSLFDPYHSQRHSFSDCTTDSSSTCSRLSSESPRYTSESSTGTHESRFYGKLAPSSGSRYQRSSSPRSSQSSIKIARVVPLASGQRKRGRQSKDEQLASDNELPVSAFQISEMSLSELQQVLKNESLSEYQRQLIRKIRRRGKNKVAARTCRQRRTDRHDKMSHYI

[13] = Luminescence Cell-Based Dose Retest to Confirm Inhibitors of Cancer Stem Cells. [Related pubchem assays (depositor defined):AID2717, AID2721]; format: functional; conditions: Homo sapiens
Fatty acid synthase [14] = target: T3, Fatty acid synthase (Homo sapiens, UniProt P49327); experiment: FAS thioesterase domain inhibitors, dose response, biochemical, kinetic fluorescence intensity (AID 624326); format: functional;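 also: rate of fluorescence rise from hydrolysis of a fluorogenic O-methyl fluorescein ester substrate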
Fatty acid synthase [15] = target: T3, Fatty acid synthase; experiment: FAS thioesterase domain inhibitors, dose response, biochemical, endpoint fluorescence intensity, uHTS hits (AID 624327); format: functional;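 also: fluorescence from hydrolysis of an O-methyl fluorescein acyl ester substrate by the enzyme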
[16] = intracellular Trypanosoma cruzi inhibitors in host cells – cell-based, plate reader, cherry-pick samples, set 3, dose response (AID 651818); format: functional;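 also: compounds incubated with infected cells for about four days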
[17] = inhibitors of HIV Env-driven cell fusion, dose response, cherry-pick (AID 652057); format: functional, cell-based
[18] = inhibitors of clade B AD8 Env fusion, dose response, cell-based, cherry-pick (AID 652062); format: functional;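 also: luciferase signal from cell-cell fusion driven by HIV-1 clade B AD8 Env; potency is for inhibitors of fusion seen as a drop in luminescence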
Cytochrome P450 3A4 = Cytochrome P450 3A4 (Homo sapiens, UniProt P08684);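 also: CYP3A4 tested as one member of a cytochrome P450 panel screen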
Cytochrome P450 1A2 = target: T4, Cytochrome P450 1A2 (Homo sapiens, UniProt P05177);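 also: PubChem cytochrome P450 panel assay, CYP1A2 panel member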
T4 sequence (P05177 whole entry): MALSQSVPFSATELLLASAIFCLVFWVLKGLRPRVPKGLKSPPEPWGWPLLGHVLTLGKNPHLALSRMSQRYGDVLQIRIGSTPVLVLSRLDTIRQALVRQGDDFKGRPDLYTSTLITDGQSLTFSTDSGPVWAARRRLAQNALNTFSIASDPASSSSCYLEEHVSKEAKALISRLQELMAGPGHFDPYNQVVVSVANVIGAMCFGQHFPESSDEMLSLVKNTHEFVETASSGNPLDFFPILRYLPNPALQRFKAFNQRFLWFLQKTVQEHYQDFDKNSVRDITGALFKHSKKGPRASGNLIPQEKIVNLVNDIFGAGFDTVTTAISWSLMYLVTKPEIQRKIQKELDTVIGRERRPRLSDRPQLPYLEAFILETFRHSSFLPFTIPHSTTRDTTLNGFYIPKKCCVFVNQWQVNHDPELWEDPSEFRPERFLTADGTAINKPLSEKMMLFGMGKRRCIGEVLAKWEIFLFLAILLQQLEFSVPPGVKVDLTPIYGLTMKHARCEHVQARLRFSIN

Sequence of Voltage-dependent T-type calcium channel subunit alpha-1H (O95180 whole entry): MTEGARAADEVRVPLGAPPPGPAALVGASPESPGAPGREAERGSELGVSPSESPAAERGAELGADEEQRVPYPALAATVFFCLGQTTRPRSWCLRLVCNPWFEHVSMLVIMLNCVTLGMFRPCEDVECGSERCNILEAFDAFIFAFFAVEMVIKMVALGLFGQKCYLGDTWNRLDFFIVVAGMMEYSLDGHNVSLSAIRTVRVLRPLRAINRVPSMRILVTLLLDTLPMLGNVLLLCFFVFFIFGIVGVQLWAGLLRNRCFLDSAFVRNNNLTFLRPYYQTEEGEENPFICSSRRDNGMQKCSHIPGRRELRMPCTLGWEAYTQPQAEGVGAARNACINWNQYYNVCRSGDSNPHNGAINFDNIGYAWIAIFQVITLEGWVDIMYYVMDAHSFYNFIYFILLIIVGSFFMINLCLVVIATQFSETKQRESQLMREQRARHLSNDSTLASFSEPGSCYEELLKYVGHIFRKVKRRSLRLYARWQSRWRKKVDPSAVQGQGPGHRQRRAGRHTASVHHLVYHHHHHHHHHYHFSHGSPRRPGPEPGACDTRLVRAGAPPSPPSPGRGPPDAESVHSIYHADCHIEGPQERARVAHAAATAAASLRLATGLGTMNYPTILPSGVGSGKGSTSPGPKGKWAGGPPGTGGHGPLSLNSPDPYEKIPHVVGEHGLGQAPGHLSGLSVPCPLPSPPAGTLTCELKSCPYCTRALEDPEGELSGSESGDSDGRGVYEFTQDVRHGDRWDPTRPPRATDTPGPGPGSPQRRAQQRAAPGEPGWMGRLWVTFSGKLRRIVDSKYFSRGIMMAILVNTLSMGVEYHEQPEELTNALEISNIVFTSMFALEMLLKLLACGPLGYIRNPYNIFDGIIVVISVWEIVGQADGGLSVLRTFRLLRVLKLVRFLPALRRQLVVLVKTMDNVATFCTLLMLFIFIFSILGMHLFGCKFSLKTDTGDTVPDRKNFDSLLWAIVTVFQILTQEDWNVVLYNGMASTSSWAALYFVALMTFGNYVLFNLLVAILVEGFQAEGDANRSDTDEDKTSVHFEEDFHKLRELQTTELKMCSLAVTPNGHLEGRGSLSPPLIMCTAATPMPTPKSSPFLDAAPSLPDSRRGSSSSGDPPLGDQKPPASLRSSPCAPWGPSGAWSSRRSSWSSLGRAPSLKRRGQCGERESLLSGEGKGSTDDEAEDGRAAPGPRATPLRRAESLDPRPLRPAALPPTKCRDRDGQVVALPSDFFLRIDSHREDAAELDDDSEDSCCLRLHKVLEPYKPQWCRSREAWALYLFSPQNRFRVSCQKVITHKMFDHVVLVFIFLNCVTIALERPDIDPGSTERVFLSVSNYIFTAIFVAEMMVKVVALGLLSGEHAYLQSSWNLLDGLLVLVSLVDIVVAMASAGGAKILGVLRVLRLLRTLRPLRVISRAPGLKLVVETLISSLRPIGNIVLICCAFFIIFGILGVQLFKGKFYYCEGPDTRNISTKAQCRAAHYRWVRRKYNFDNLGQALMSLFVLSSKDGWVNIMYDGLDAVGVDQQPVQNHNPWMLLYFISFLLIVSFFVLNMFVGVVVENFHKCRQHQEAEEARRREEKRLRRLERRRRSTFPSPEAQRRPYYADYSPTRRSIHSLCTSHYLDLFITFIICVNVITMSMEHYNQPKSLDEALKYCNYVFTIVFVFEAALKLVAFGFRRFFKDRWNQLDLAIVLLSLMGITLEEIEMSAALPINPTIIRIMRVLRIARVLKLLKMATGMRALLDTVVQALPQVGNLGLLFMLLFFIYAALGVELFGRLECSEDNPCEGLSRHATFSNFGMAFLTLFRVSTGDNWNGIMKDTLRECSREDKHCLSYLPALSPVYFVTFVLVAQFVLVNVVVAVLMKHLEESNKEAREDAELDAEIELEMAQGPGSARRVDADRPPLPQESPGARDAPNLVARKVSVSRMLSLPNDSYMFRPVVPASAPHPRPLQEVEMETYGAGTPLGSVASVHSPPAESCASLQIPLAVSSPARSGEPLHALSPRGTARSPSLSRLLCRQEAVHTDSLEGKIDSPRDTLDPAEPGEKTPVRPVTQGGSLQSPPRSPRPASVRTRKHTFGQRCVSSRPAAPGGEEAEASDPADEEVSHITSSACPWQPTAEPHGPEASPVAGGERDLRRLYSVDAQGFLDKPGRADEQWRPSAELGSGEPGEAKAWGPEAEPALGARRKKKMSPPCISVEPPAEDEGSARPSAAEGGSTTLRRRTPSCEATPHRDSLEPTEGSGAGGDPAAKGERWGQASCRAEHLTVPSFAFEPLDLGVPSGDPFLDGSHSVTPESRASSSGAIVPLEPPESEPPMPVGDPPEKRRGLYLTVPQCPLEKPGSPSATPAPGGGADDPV
T1 sequence (P11940 whole entry): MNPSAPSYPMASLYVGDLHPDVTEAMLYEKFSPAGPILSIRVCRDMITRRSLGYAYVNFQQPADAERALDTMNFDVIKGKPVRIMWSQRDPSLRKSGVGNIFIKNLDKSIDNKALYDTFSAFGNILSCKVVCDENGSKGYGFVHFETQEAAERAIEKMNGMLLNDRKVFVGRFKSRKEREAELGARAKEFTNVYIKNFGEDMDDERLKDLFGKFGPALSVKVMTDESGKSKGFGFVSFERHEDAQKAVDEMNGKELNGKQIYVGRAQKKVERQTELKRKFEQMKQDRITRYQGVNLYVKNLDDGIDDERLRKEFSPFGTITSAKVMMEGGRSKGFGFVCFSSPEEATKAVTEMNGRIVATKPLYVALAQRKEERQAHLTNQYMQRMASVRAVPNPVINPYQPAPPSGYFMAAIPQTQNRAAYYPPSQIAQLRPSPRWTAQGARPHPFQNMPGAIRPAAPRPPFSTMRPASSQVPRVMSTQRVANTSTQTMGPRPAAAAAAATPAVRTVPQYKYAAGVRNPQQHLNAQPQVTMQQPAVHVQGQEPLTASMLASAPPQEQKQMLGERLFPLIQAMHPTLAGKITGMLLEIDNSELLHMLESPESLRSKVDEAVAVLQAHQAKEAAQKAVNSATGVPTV
Sequence of Large T antigen (P03070 whole entry): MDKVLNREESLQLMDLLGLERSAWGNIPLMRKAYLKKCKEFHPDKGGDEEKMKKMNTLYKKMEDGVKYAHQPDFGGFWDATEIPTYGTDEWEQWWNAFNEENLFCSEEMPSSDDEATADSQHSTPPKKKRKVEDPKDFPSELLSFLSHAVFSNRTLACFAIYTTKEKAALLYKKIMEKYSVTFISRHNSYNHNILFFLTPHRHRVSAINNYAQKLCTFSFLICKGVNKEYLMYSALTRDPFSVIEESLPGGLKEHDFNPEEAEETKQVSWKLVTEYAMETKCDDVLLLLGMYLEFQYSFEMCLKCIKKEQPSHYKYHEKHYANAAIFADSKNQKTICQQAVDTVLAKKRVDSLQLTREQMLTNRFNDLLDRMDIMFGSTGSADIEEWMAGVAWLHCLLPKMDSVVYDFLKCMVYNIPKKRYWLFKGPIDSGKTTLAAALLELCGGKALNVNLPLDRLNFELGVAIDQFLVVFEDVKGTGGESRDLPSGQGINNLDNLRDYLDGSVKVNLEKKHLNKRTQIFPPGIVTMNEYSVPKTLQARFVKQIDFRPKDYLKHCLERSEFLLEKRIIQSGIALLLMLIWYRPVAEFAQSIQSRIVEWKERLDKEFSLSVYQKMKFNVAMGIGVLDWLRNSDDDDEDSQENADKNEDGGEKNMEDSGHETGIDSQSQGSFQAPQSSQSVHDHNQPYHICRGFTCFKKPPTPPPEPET
Sequence of Cytochrome P450 3A4 (P08684 whole entry): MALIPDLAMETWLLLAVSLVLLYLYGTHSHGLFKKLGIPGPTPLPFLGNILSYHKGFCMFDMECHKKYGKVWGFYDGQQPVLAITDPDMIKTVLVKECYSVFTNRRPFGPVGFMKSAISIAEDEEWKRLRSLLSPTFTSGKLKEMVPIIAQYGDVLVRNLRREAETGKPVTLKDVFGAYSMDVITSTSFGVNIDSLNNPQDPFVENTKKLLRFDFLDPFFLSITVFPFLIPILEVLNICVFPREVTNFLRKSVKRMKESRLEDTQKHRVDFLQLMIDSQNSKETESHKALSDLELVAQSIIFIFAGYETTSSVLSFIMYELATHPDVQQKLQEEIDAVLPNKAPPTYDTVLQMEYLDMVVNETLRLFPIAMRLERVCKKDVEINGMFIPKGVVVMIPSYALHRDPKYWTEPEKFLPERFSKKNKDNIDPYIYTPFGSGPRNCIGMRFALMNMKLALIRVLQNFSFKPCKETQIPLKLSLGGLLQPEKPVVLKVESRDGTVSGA
Sequence of FAD-linked sulfhydryl oxidase ALR (P55789 whole entry): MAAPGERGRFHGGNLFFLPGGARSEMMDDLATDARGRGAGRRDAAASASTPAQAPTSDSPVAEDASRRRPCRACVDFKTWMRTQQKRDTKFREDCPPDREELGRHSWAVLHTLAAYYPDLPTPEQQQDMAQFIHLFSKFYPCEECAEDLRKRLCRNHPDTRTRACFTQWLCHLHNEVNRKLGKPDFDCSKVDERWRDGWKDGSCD

SMILES: O=C1c2ccccc2C(Nc2cccc(C(F)(F)F)c2)N1Cc1ccco1 (centres undefined)
- EC50 [1]: 3.9 µM (active)

SMILES: O=[N+]([O-])c1ccc(C2Oc3ccccc3C3CC(c4ccccc4)=NN32)s1 (centres undefined)
- CC50 [2]: 31.5 µM (active)

SMILES: CCCCCCCCNC(=O)c1cccnc1SCC(=O)Nc1ccc(OC)cc1OC
- EC50 [3]: 12.3 µM (active)
- EC50 [4]: 12.6 µM (active)

SMILES: Cc1ccc(C)c(-c2nn(-c3cc(N4CCN(CCO)CC4)ccc3[N+](=O)[O-])c(=O)c3ccccc23)c1
- EC50 [5]: > 60 µM (not active)
- EC50 [6]: 2.23 µM (active)
- CC50 [2]: 31.4 µM (active)

SMILES: COc1ccc(S(=O)(=O)N2CCOC2CNC(=O)C(=O)NCCc2c[nH]c3ccccc23)cc1C (centres undefined)
- EC50 [1]: 3.31 µM (active)

SMILES: CC(C)NC(C(=O)Nc1cc(Cl)cc(Cl)c1)c1ccccc1 (centres undefined)
- EC50 [1]: 3.62 µM (active)

SMILES: Cc1ccc(Cl)cc1N1CCN(C(=O)C2CCC(=O)N(C3CCCCCC3)C2)CC1 (centres undefined)
- AC50 [7]: 54.8 µM (active)
- AC50 [8]: 3.41 µM (active)
- AC50 [9]: 3.14 µM (active)
- CC50 [2]: > 40 µM (active)

SMILES: COc1ccccc1OCC(=O)NCCNC(=O)COc1ccccc1OC
- IC50 [10]: > 66 µM (inactive)
- IC50 [11]: > 66 µM (inactive)

SMILES: Oc1ccc(-c2cn3ccccc3n2)cc1
- IC50 (Large T antigen): > 100 µM (active)
- AC50 [12]: 0.097 µM (active)

SMILES: CCN(CC)S(=O)(=O)c1ccc(Cc2ncc(C(F)(F)F)cc2Cl)s1
- EC50 [1]: 9.84 µM (active)

SMILES: CC1CCN(c2ccccc2NC(=S)NC(=O)c2ccc(-c3cccc([N+](=O)[O-])c3)o2)CC1
- AC50 [7]: > 70 µM (inactive)
- AC50 [8]: 3.38 µM (active)
- AC50 [9]: 3.07 µM (active)
- IC50 [10]: > 66 µM (inactive)
- IC50 [11]: > 66 µM (inactive)

SMILES: COc1ccc(NC(=O)CSc2ccccc2)cn1
- IC50 [10]: 41.7 µM (inactive)
- IC50 [11]: 33.4 µM (inactive)

SMILES: O=C(CCc1ccc(O)c(O)c1)NN=C(S)Nc1ccc(Br)cc1Cl
- IC50 (Large T antigen): > 100 µM (active)

SMILES: O=C(Nc1ccccc1-c1ccccc1)c1ccc(Br)o1
- EC50 [1]: 7.47 µM (active)

SMILES: CCN1CCN(c2cc(N3CCc4ccccc4C3)c(F)cc2[N+](=O)[O-])CC1
- EC50 [3]: 12.8 µM (active)
- EC50 [4]: 12 µM (active)

SMILES: Cc1c(C(=O)NCCC2=CCCCC2)oc2ccc(S(=O)(=O)N3CCOCC3)cc12
- EC50 [3]: 19.2 µM (active)
- IC50 (Protein skinhead-1): > 100 µM (inactive)
- EC50 [4]: 31.7 µM (active)

SMILES: O=C(COc1cccc(C(F)(F)F)c1)N1CCN(c2ccc(O)cc2)CC1
- IC50 (Large T antigen): 9.68 µM (active)
- AC50 [13]: 7.3 µM (active)

SMILES: NC(=O)OCCSc1nnc(-c2cccc(C(N)=S)c2)o1
- IC50 [10]: > 66 µM (inactive)
- IC50 [11]: > 66 µM (inactive)

SMILES: Cc1cc(C)n(CCOC(=O)C2C(C=C(Cl)Cl)C2(C)C)n1 (centres undefined)
- EC50 [1]: 4.86 µM (active)

SMILES: O=C(CN1CCN(C(=O)c2ccco2)CC1)Nc1ccc(Cl)c(C(F)(F)F)c1
- EC50 [1]: 3.47 µM (active)

SMILES: CC(C)NC(=O)N(C)C[C@H]1Oc2c(NC(=O)Nc3ccc(C(F)(F)F)cc3)cccc2C(=O)N([C@H](C)CO)C[C@@H]1C
- IC50 (Fatty acid synthase [14]): 1.08 µM (active)
- IC50 (Fatty acid synthase [15]): 0.842 µM (active)

SMILES: C[C@@H]1CCCCO[C@@H](CN(C)Cc2ccc(Cl)c(Cl)c2)[C@@H](C)CN([C@H](C)CO)C(=O)c2cc(NC(=O)Nc3ccccc3)ccc2O1
- AC50 [16]: 3.82 µM (active)

SMILES: COc1ccc(S(=O)(=O)N(C)C[C@H]2Oc3ccc(NS(=O)(=O)c4ccc(C)cc4)cc3CC(=O)N([C@H](C)CO)C[C@H]2C)cc1
- AC50 [16]: 3.72 µM (active)

SMILES: C[C@@H]1CN([C@H](C)CO)C(=O)Cc2cc(NC(=O)Nc3ccccc3)ccc2O[C@@H]1CN(C)Cc1ccc(Oc2ccccc2)cc1
- AC50 [16]: 3.76 µM (active)

SMILES: C[C@H](CO)N1C[C@H](C)[C@H](CN(C)S(=O)(=O)c2ccccc2)Oc2cc(-c3cccc(F)c3)ccc2S1(=O)=O
- AC50 [17]: 11 µM (active)
- AC50 [18]: 10.7 µM (active)

SMILES: O=c1[nH]c2cc([N+](=O)[O-])c([N+](=O)[O-])cc2[nH]c1=O [DNQX]
- IC50 (Fatty acid synthase [14]): 6.88 µM (active)
- AC50 (Cytochrome P450 3A4): 25.1 µM (inconclusive)
- IC50 (Fatty acid synthase [15]): 8.63 µM (active)
- AC50 (Cytochrome P450 1A2): 31.6 µM (inconclusive)
